Assay results as given in patent publication US9096532B2, “Pyrazole inhibitors of COX-2 and sEH” (The Regents of the University of California, priority 2010, dated 2015).

Columns and labels:
HUVEC cells = assay: HUVEC endothelial tube formation assay; assay type: cell-based, human; conditions: treated for 4-6 hours, FIG. 12
Protocol: Endothelial tube formation assay was carried out using a slightly modified method described by Arnaoutova and Kleinman (Nat. Protocols 5, 628-635). Briefly, 96-well plates were coated with growth-factor reduced Matrigel (50 μL per well, BD Biosciences, San Jose, Calif.) at 37° C. for 30 min. HUVEC cells were seeded into the 96-well plates at 2×10^4 cells per well in 100 μL serum-free F-12K medium with or without test compounds and incubated for 6 h 37° C. in the incubator. Microscope image was recorded and analyzed by NIH Image J software.

[1] = Pharmacokinetics in mice by oral cassette dosing; assay type: in vivo; conditions: oral cassette dosing at 5 mg/kg, blood
Protocol: All the animal experiments were performed according to protocols approved by the Animal Use and Care Committee of University of California, Davis. […] Each cassette was orally administered to 4 mice at a dose of 5 mg/kg in 120-150 μl of vehicle depending on animal weight. […] The instrument was equipped with a linear ion trap and a Turbo V ion source and was operated in negative ion MRM mode. […] This was maintained for 3 min, then the gradient was returned to 30% solvent B in 2 min. The flow rate was 0.4 mL/min. The injection volume was 10 μL and the samples were kept at 4° C. in the auto sampler.

5-LOX = molecular target: T1, 5-LOX (Homo sapiens, UniProt P09917); assay: Potency against 5-LOX; assay type: biochemical; conditions: compared with celecoxib
T1 sequence (P09917 1-674): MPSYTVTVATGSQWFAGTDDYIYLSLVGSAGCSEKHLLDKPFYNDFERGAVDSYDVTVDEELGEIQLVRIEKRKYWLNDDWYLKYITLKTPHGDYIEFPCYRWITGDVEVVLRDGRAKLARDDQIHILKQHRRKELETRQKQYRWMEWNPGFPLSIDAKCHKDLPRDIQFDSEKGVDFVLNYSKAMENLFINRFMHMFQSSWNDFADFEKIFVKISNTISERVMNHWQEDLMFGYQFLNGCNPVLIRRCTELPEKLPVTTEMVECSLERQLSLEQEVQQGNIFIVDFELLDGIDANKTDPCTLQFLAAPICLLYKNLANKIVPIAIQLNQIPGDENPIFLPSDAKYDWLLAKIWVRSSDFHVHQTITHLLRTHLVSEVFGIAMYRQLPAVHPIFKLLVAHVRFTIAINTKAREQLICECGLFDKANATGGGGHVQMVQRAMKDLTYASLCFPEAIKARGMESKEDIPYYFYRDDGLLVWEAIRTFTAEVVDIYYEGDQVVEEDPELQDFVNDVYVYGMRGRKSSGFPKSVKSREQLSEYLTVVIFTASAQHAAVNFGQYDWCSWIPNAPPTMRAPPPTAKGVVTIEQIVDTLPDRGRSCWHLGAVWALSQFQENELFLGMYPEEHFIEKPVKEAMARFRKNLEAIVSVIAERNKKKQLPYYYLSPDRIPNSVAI

[2] = system: cancer cells (H-1, PC-3, A375, Met-1); assay: Cancer cell proliferation assay (MTT); assay type: cell-based; conditions: times higher than in endothelial cells, FIG. 14
Protocol: Cells (HUVEC, H-1, PC-3, A375, Met-1) were seeded into 96-well plates at 1.0-1.5×10^3 cells per well in 100 μL complete medium. After 24 h, the medium was replaced with fresh complete medium containing test compounds and the cells were incubated for another 72 hours. Cell viability was assessed by MTT assay (Sigma-Aldrich).

Met-1 breast cancer = assay: In vivo Met-1 tumor growth; conditions: FVB mice, 0.1 mg/kg/day by mini-pump, FIG. 16
From the text: Cells derived from highly metastatic breast cancer Met-1 will be transplanted into the fat pads of FVB female mice. […] Over this period, animals will be checked 3 times per week with ultrasound to mark changes in tumor growth and size. Ultrasound contrast agent microbubbles will also be administered during each ultrasound session by IV injection to track changes in tumor vasculature (Invest Radiol 46, 215-224).

[3] = system: mouse aortic ring vessel sprouting; assay: Mouse aortic ring assay; assay type: cell-based; conditions: FIG. 13
Protocol: Mouse aorta ring assay was carried out using a slightly modified method described by Bellacen and Lewis (J Vis Exp, e1564). The 48-well plates were coated with 50 μL per well growth-factor reduced Matrigel at 37° C. for 30 min. The aorta of C57BL/6 mice was harvested, washed with cold serum-free F-12K medium 5-6 times, and cut to ˜1 mm length pieces. The aorta ring was put in the center area of Matrigel-coated 48-well plates, then another 100 μL Matrigel was added into each well and incubated at 37° C. for another 30 min. Complete endothelial EGM-2 culture medium (500 μL per well) with or without test compounds was added into each well, incubated in 37° C. incubators for 6-12 days, microscope image was recorded and analyzed by NIH Image J software.

[4] = system: MMP activity in PC-3 cells; assay: Matrix metalloproteinase (MMP) assay by zymography, PC-3 cells; assay type: cell-based; conditions: FIG. 17 left
Protocol: MMP activity in PC-3 and HUVEC cells were carried out by zymography (J Vis Exp, e2445). […] After that, the gels were incubated at renaturing buffer for 30 min, followed with incubation at zymography developing buffer for 30 min at room temperature, and replaced with fresh developing buffer and incubated at 37° C. overnight. The gels were stained by Coomassie blue, and images were recorded and analyzed by NIH Image J software.

Compound: NS(=O)(=O)c1ccc(-n2nc(CCCNC(=O)Nc3ccc(C(F)(F)F)cc3)cc2-c2ccccc2)cc1 [Compound 21i, 4-(5-Phenyl-3-{3-[3-(4-trifluoromethyl-phenyl)-ureido]-propyl}-pyrazol-1-yl)-benzenesulfonamide]
- HUVEC tube formation, in words (HUVEC cells): inhibits endothelial proliferation assay of HUVEC cells
- AUC [1]: 0.98 µM·h
- Cmax [1]: 260 nM
- Tmax [1]: 0.8 h
- t1/2 [1]: 2.6 h
- Potency against 5-LOX, in words (5-LOX): comparable with celecoxib
- IC50 in cancer cells relative to endothelial cells [2]: 5-10 times
- Primary tumor growth of Met-1 breast cancer, in words (Met-1 breast cancer): inhibits primary tumor growth
- Vessel sprouting in mouse aortic ring assay, in words [3]: inhibited vessel sprouting in mouse aortic ring assay in a dose-dependent manner
- MMP activity, in words [4]: no effect on MMP activity
